# Entries after “also recorded” stand apart in the source; their conditions may differ.
# Experiments:
# N171-82Q HD mice [1] = experiment: Tapered beam and balance beam motor function in N171-82Q HD mice; assay type: in vivo, mouse; conditions: after 17-weeks of treatment, FIG. 8f
# Description: (§1) MP101 (DNP) was used in a mouse model of Huntington's Disease, the “Fragment Model” N171-82 HD mice, to determine its neuroprotective effects. The N171-82 HD mice were treated with MP101 at 0.5, 1 and 5 mg/kg by oral gavage daily for greater than 17-weeks. At the age of 26-weeks (17-weeks of treatment), the mice were tested for changes in behavioral, loss of brain volume, spiny neurons and general neurons. FIGS. 8a, 8b, 8c, 8d, 8e, and 8f show the effects of DNP (MP101 drug treatment).
# (§2) FIGS. 8a-8f show the effects of MP101 in the Huntington's Disease model N171-82Q after 13-weeks (age 22 weeks) and/or 17-weeks (age 26-weeks) of treatment with DNP.
# N171-82Q HD mice [2] = experiment: MRI brain volume in N171-82Q Huntington's Disease mice; assay type: in vivo, mouse; conditions: N171-82Q HD mice vs HD placebo
# Description: as §1, §2
# [3] = test system: Experimental Autoimmune Encephalomyelitis (EAE); experiment: Clinical scores in the EAE mouse model of MS; assay type: in vivo; conditions: FIG. 2c
# BDNF [4] = experiment: BDNF mRNA in brain by semi quantitative PCR after two weeks daily oral gavage; assay type: in vivo, Wildtype C57BL/6J mice; conditions: FIG. 1
# Description: As described herein below, mitochondrial uncoupler DNP was tested in a range of doses in mice from 0.5 mg/kg of DNP to 10 mg/kg of DNP under oral chronic treatment to titrate the amount of drug in the brain required to induce increases of BDNF endogenously within the brain. […] Therefore, it was discovered that there is a specific and limited dose range of DNP that is necessary to achieve statistically significant survival and behavioral benefit for a host of diseases that benefit from increased BDNF levels. […]
# BDNF [5] = experiment: BDNF protein levels by immunoblot in the EAE mouse model of MS; assay type: in vivo; conditions: for Intensity of the BDNF band (immunoblot): lumbal spinal cord, Day 42, treated Day 7 to Day 21, FIG. 2a
# Description: The tissue was taken on Day 42 of the study during the recovery phase from the lumbal spinal cord of representative mice that were immunized on Day 1 with the MOG peptide, then treated with MP101 starting on Day 7 and stopping on Day 21. […] Untreated animals are shown as naïve. The changes in BDNF levels are therefore 3-weeks post-treatment with DNP (aka MP101).
# Mecp2 mutant mice [6] = experiment: Clasping test in Mecp2 mutant mice; assay type: in vivo, mouse; conditions: 1 mg/kg, 12-weeks of age, 1-month oral gavage, FIG. 4
# Description: (§3) MP101 was tested in a model of Rett Syndrome using Mecp2 mutant mice. Rett Syndrome is a developmental disorder in young girls, with first symptoms starting at about 18-months of age, including reduced head growth. FIGS. 3a, 3b, 3c and 4 show the effects of treating these mutant mice with MP101 at 0.5, 1 mg/kg and 5 mg/kg by oral gavage.
# C57Bl/6 mice = experiment: 6-OHDA dopaminergic degeneration, cylinder test in wildtype mice (Parkinson's); assay type: in vivo, mouse
# Description: (§4) The merits of treating Parkinson's Disease with MP101 (DNP) was evaluated in wildtype mice and SIRT3 KO mice with 6-OHDA injections after two weeks of MP101 treatment. We examined the neuroprotective effects of varying MP-101 doses (0.5, 1, 5 mg/kg) against dopaminergic degeneration of nigrostriatal neurons induced by a single unilateral stereotaxic injection of neurotoxin 6-hydroxydopamine (6-OHDA) in the right striatum of the brain of 2-3 month old male C57Bl/6 mice or SIRT3 KO mice. SIRT3 KO is a model of a heightened sensitivity to glutamate-induced calcium overload and excitotoxicity, and oxidative and mitochondrial stress, therefore ideal for evaluating Parkinson's Disease, Huntington's Disease and temporal lobe epilepsy.
# (§5) FIGS. 7a and 7b show the effects of DNP (MP101) treatment for 14-Days by oral gavage in protecting dopaminergic neuronal loss when the right striatum is injected with 6-OHDA after the last day.
# N171-82Q HD mice [7] = experiment: Neuronal biomarkers DARPP32 and PSD95 in N171-82Q HD mice; assay type: in vivo, mouse
# Description: as §1, §2
# Mecp2 mutant mice [8] = experiment: Rotarod in Mecp2 mutant mice, a model of Rett Syndrome; assay type: in vivo, mouse; conditions: 8-weeks of age; 0.5, 1 and 5 mg/kg oral gavage vs mutant vehicle; FIG. 3a
# Description: as §3
# In FIGS. 3a and 3b, Mecp2 mutant mice, a model of Rett Syndrome, were treated with MP101 (DNP) at 6-weeks of age and tested on their coordination to walk on a rotating cylinder (rotarod). Wildtype mice are used as a benchmark for general decline in behavior compared to Mecp2 mutant mice treated with Vehicle, 0.5 mg/kg MP101, 1 mg/kg MP101 and 5 mg/kg MP101 by oral gavage.
# [9] = acute single dose post-ischemia; cited from earlier work
# APP/PS1 mice = experiment: Morris Water Maze in APP/PS1 mice (Alzheimer's); assay type: in vivo, mouse; conditions: 0.5, 1 and 5 mg/kg oral gavage for 4-months vs Vehicle, FIGS. 5a-5c
# Description: In addition, Alzheimer's Disease, representing about 70% of all dementia cases, was evaluated using the APP/PS1 mice, which express the APPswe mutation and PS1deltaE9 mutation and develop relatively rapid Aβ pathology and cognitive deficits. At 4-months of age, the APP/PS1 mice were treated for 4-months by oral gavage delivery with MP101 (DNP) at 0.5, 1 and 5 mg/kg. […] The amount of time spent in the quadrant is an indicator of whether the mice remember the general location, with increased time indicating increased memory.
# The amount of time spent in the quadrant is an indicator of whether the subject remembers the general location.
# wildtype mice = experiment: Kanic acid model of epilepsy, seizure time; assay type: in vivo, mouse; conditions: FIG. 6
# Description: DNP was also evaluated for a treatment of Epilepsy. The kanic acid model is an acute model of epilepsy caused by an injection in the right hippocampus of an analogue of glutamate (kanic acid) that over-stimulates the neurons causing death.
# SIRT3 KO mice = experiment: 6-OHDA dopaminergic degeneration, rotarod in SIRT3 KO mice (Parkinson's); assay type: in vivo, mouse; conditions: 14-Days oral gavage, 6-OHDA in right striatum, FIG. 7b
# Description: as §4, §5
# [10] = test system: Experimental Autoimmune Encephalomyelitis (EAE); experiment: Spinal cord electron microscopy in the EAE mouse model of MS; assay type: in vivo; conditions: 5 mg/kg, Day-16 (peak of onset), vs placebo, FIG. 2d
structure (smiles),measurement,setting,value
"O=[N+]([O-])c1ccc(O)c([N+](=O)[O-])c1 [DNP, 2,4-dinitrophenol]",Motor function in the balance beam,N171-82Q HD mice [1],improves motor function
same,Motor function in the tapered beam,N171-82Q HD mice [1],improves motor function
same,Brain volume loss in the cortex (MRI),N171-82Q HD mice [2]; FIG. 8b,minor loss
same,Brain volume loss in the striatum (MRI),N171-82Q HD mice [2]; FIG. 8c,minor loss
same,Progression of the phenotype on clinical scores,[3],attenuation of disease progression
same,BDNF levels in the brain at the highest dose compared with lower doses,"BDNF [4]; 10.0 mg/kg daily oral gavage, bell-shaped curve",reduced level of BDNF compared with the next two lower doses; also recorded: less BDNF is expressed
same,"BDNF levels in the brain (mRNA, delta-delta CT, percent change relative to placebo)","BDNF [4]; 0.5, 1.0, 5.0 and 10.0 mg/kg daily oral gavage",induce BDNF within the brain; also recorded: increases BDNF levels in the brain
same,Intensity of the BDNF band (immunoblot),BDNF [5]; 0.5 mg/kg and 1 mg/kg vs placebo,increases
same,Intensity of the BDNF band (immunoblot),BDNF [5]; 5 mg/kg,plateau effect
same,BDNF protein level 3-weeks post treatment,"BDNF [5]; EAE model, after 2 weeks of treatment, FIG. 2b",statistically elevated level of BDNF protein; also recorded: BDNF levels are elevated in the brain; also recorded: lasting effect
same,Clasping test,Mecp2 mutant mice [6],shows an effect
same,Protection of dopaminergic neurons from 6-OHDA,"C57Bl/6 mice; 0.5, 1, 5 mg/kg for two weeks, C57Bl/6 or SIRT3 KO mice, FIG. 7",protected the dopaminergic neurons
same,Percent of left and right paw touches on the wall (cylinder),"C57Bl/6 mice; wildtype mice, 14-Days oral gavage, 6-OHDA in right striatum, FIG. 7a",improved
same,"Medium spiny neurons, biomarker DARPP32","N171-82Q HD mice [7]; 26-weeks of age, FIG. 8d",preserves medium spiny neurons
same,"General neuronal loss, postsynaptic protein PSD95 levels","N171-82Q HD mice [7]; N171-82Q HD mice, FIG. 8e",preserves general neuronal loss
same,Ability to walk on the rotarod,Mecp2 mutant mice [8],fall less and can handle higher speeds of rotation
same,Infarct volume,[9],reduce infarct volume
same,ROSs species,[9],lower ROSs species
same,"Cognition / short term memory in Morris Water Maze (distance, time in quadrant, entries)",APP/PS1 mice,improved in short term memory
same,"Cognition / short term memory in Morris Water Maze (distance, time in quadrant, entries)",APP/PS1 mice; listed as MP101,improved cognition
same,Seizure time after kanic acid injection,"wildtype mice; 1, 5 and 10 mg/kg oral gavage for 2-weeks before injection",shortening of seizure time
same,Neural protection from over-stimulation by kanic acid,"wildtype mice; 1, 5 and 10 mg/kg oral gavage for 2-weeks, relative to Vehicle",provided neural protection
same,Motor coordination on rotating cylinder (rotarod),SIRT3 KO mice,improved motor coordination
same,Myelin sheaths surrounding the axons and axons (electron microscopy),[10],striking axonal protection
same,Myelin sheaths surrounding the axons and axons (electron microscopy),[10]; listed as MP101,completely intact

# Reference: patent US9974755B2, “Induced expression of brain derived neurotrophic factor (BDNF) for treatment of neuromuscular, neurodegenerative, autoimmune, developmental and/or metabolic diseases” (Mitochon Pharmaceuticals, Inc., priority 2015, dated 2018)
